Article PMC6017588, “Synthesis and Structure-Activity Relationships of LP1 Derivatives: N-Methyl-N-phenylethylamino Analogues as Novel MOR Agonists” (Molecules : A Journal of Synthetic Chemistry and Natural …, 2018)
Counter-ions that a name gives are not always drawn. Like-named read-outs stand apart in the source and are kept apart here.

Assays:
MOR [1] = target: T1, MOR (Rattus norvegicus, UniProt P33535); test: Inhibition of forskolin-stimulated cAMP accumulation in HEK293 cells stably expressing MOR; assay type: cell-based; details: for Emax: maximal percent inhibition of cAMP accumulation, read-out: Imax (%) ± SD MOR
Method: As typical Gi/o coupled receptor, MOR, DOR and KOR signals are mediated by AC inhibition.
(§1) Cell culture. HEK293 cells stably expressing either the EE-tagged MOR or the flag-tagged KOR [20, 21, 22] were grown in Dulbecco’s modified Eagle’s medium (DMEM) supplemented with 10% fetal calf serum, 2 mM glutamine, 100 U/mL penicillin, and 0.1 mg/mL streptomycin under 5% CO2 at 37 °C.
(§2) Measurements of cAMP accumulation. Measurements of AC activity were performed as described by Papakonstantinou et al. or the GloSensor cAMP Assay (Promega) following the Manufacturer’s instructions. The generation of cAMP was assessed in response to treatment of the cells with various concentrations of the appropriate ligand (10 pM–50 μΜ) using 50 μΜ forskolin at 37 °C. Values are means ± SD of triplicate determinations from three independent experiments. Analysis of the data was performed using Origin 7.5 software (OriginLab Corporation, Northampton, MA, USA).

MOR [2] = target: T1, MOR; test: MOR competitive radioligand binding ([3H]-DAMGO displacement, rat brain membranes); set-up: from tissue; host or cells: rat brain membranes
KOR [3] = target: T2, KOR (Cavia porcellus, UniProt P41144); test: KOR competitive radioligand binding ([3H]-(+)-U69,593 displacement, guinea pig brain membranes)
T2 construct: from tissue; host or cells: guinea pig brain membranes

KOR [4] = target: T3, KOR (Homo sapiens, UniProt P41145); test: Inhibition of forskolin-stimulated cAMP accumulation in HEK293 cells stably expressing KOR; assay type: cell-based; details: for Imax (%) ± SD KOR: maximal percent inhibition of cAMP accumulation; for Imax (%) ± SD KOR / cAMP inhibition: HEK293-KOR; for cAMP inhibition: only at very high concentrations, not dose-dependent
T3 construct: FLAG; expressed in transfected cells
Method: As typical Gi/o coupled receptor, MOR, DOR and KOR signals are mediated by AC inhibition. Given the significant MOR and moderate KOR affinity, to examine the functional role of target compounds, in opioid receptor signaling, the ability of 5a–d and 6a–d to affect forskolin-stimulated AC activity in HEK293 cells stably expressing the MOR or KOR was tested and the results are reported in Table 2.
as §1, §2

DOR [5] = target: T4, DOR (Rattus norvegicus, UniProt P33533); test: DOR competitive radioligand binding ([3H]-DPDPE displacement, rat brain membranes)
T4 construct: from tissue; host or cells: rat brain membranes

[6] = tested on: acute thermal nociception; test: Radiant heat tail flick test in mice; assay type: in vivo, mouse
Method: The MOR agonist 5c was evaluated for acute agonistic effects in mice. In detail, it was tested for its ability to produce antinociception in the mouse tail flick test at the dose-range of 1–7 mg/kg intraperitoneal (ip) injected. The compound produced a dose-dependent analgesic effect compared to the group of mice treated with saline (* p < 0.05 vs. saline-treated mice).
Animals. Male Swiss […] mice (Envigo Laboratories, S. Pietro al Natisone (UD), Italy) weighing 25–30 g were housed six to a cage. Animals were kept at a constant room temperature (25 ± 1 °C) under a 12:12 h light and dark cycle with free access to food and water. Each mouse was used for only one experiment.
Nociceptive Test. Nociception was evaluated by the radiant heat tail-flick test. Briefly, it consisted of irradiation of the lower third of the tail with an infrared source (Ugo Basile, Comerio, Italy). The day before the experiment, mice were habituated to the procedure for measuring nociception threshold. Experiments were performed at room temperature (25 ± 1 °C). The basal pre-drug latency was established between 3 and 5 s and was calculated as the average of the first three measurements, which were performed at 5 min intervals. A cut-off latency of 15 s was established to minimize damage to the tail. All tested compounds were dissolved in pyrogen-free isotonic saline (Baxter Healthcare, Deerfield, IL, USA) and DMSO (5%) and were administered to mice ip. Post-treatment tail flick latencies (TFLs) were determined at 30, 45, 60, 75 and 90 min after ip injection.
Statistical Analysis. All values were presented as means ± SD. Intergroup comparisons were assessed using an initial two-way analysis of variance (ANOVA) followed by Duncan’s multiple range post-hoc test. Differences were considered significant when * p < 0.05. Effective dose-50 (ED50) values were calculated using least-squares linear regression analysis followed by calculation of 95% confidence limits (95% CL) by the method of Bliss.

[7] = set-up: method as in PMID 22100511, PMID 22580287; details: in vivo tested; cited from earlier work
DOR [8] = tested on: DOR; set-up: method as in PMID 20599386; details: earlier work; read-out: IC50 DOR (intrinsic activity); cited from earlier work

Row | SMILES | melting point | Emax (MOR [1]) | Ki (MOR [2]) | Ki (KOR [3]) | Ki (DOR [5]) | also measured
1 | C[C@H]1[C@H]2Cc3ccc(O)cc3[C@]1(C)CCN2CCNc1ccccc1 (as salt: oxalate) [5a, (2R,6R,11R)-3-(2-Anilinoethyl)-6,11-dimethyl-1,2,3,4,5,6-hexahydro-2,6-methano-3-benzazocin-8-ol] | 145 to 146 °C |  |  |  |  | 
2 | C[C@H]1[C@H]2Cc3ccc(O)cc3[C@]1(C)CCN2CCNC1CCCCC1 (as salt: oxalate) [5b, (2R,6R,11R)-3-[2-(Cyclohexylamino)ethyl)-6,11-dimethyl-1,2,3,4,5,6-hexahydro-2,6-methano-3-benzazocin-8-ol] | 153 to 155 °C |  |  |  |  | 
3 | CCN(CCN1CC[C@@]2(C)c3cc(O)ccc3C[C@@H]1[C@@H]2C)c1ccccc1 (as salt: oxalate) [5d, (2R,6R,11R)-6,11-Dimethyl-{2-[ethyl(phenyl)amino]ethyl}-1,2,3,4,5,6-hexahydro-2,6-methano-3-benzazocin-8-ol] | 158 to 160 °C |  |  |  |  | 
4 | C[C@H]1[C@H]2Cc3ccc(O)cc3[C@]1(C)CCN2CCCNc1ccccc1 (as salt: oxalate) [6a, (2R,6R,11R)-3-(3-Anilinopropyl)-6,11-dimethyl-1,2,3,4,5,6-hexahydro-2,6-methano-3-benzazocin-8-ol] | 149 to 150 °C |  |  |  |  | 
5 | C[C@H]1[C@H]2Cc3ccc(O)cc3[C@]1(C)CCN2CCCNC1CCCCC1 (as salt: oxalate) [6b, (2R,6R,11R)-3-[3-(Cyclohexylamino)propyl)-6,11-dimethyl-1,2,3,4,5,6-hexahydro-2,6-methano-3-benzazocin-8-ol] | 136 to 138 °C |  |  |  |  | 
6 | C[C@H]1[C@H]2Cc3ccc(O)cc3[C@]1(C)CCN2CCCN(C)c1ccccc1 (as salt: oxalate) [6c, (2R,6R,11R)-6,11-Dimethyl-{3-[methyl(phenyl)amino]propyl}-1,2,3,4,5,6-hexahydro-2,6-methano-3-benzazocin-8-ol] | 140 to 142 °C |  |  |  |  | 
7 | CCN(CCCN1CC[C@@]2(C)c3cc(O)ccc3C[C@@H]1[C@@H]2C)c1ccccc1 (as salt: oxalate) [6d, (2R,6R,11R)-6,11-Dimethyl-{3-[ethyl(phenyl)amino]propyl}-1,2,3,4,5,6-hexahydro-2,6-methano-3-benzazocin-8-ol] | 138 to 139 °C |  |  |  |  | 
8 | C[C@H]1[C@H]2Cc3ccc(O)cc3[C@]1(C)CCN2CCNc1ccccc1 [5a, (2R,6R,11R)-3-(2-Anilinoethyl)-6,11-dimethyl-1,2,3,4,5,6-hexahydro-2,6-methano-3-benzazocin-8-ol] |  | 60 ± 4% | 83 ± 30 nM | 100 ± 5 nM | 270 ± 10 nM | IC50 (KOR [4]): 1000 ± 65 nM
9 | C[C@H]1[C@H]2Cc3ccc(O)cc3[C@]1(C)CCN2CCNC1CCCCC1 [5b, (2R,6R,11R)-3-[2-(Cyclohexylamino)ethyl)-6,11-dimethyl-1,2,3,4,5,6-hexahydro-2,6-methano-3-benzazocin-8-ol] |  | 28 ± 1% | 8.3 ± 0.8 nM | 19.8 ± 0.9 nM | 70 ± 2 nM | IC50 (KOR [4]): 180 ± 50 nM; Imax (%) ± SD KOR (KOR [4]): 58 ± 4%
10 | C[C@H]1[C@H]2Cc3ccc(O)cc3[C@]1(C)CCN2CCN(C)c1ccccc1 [5c, (2R,6R,11R)-6,11-Dimethyl-{2-[methyl(phenyl)amino]ethyl}-1,2,3,4,5,6-hexahydro-2,6-methano-3-benzazocin-8-ol] |  | 72% | 6.1 ± 0.5 nM | 31 ± 1.3 nM | 147 ± 5.7 nM | Functional profile at MOR (MOR [1]; cAMP accumulation): MOR agonist; cAMP inhibition (KOR [4]): 30%; ED50 ([6]; 0.75 h, mouse tail flick, ip, 45 min post-treatment, read-out: ED50 (95% CL)): 4.33 mg/kg; Time of maximal antinociceptive activity ([6]; after ip injection, mouse tail flick): 45 min; Duration of significant antinociceptive activity ([6]; highest dose (7 mg/kg ip), after injection): 75 min; Effect of naloxone pretreatment on antinociception ([6]; naloxone 3 mg/kg sc, 30 min prior to 5c, data not shown): prevented its antinociceptive effect
11 | CCN(CCN1CC[C@@]2(C)c3cc(O)ccc3C[C@@H]1[C@@H]2C)c1ccccc1 [5d, (2R,6R,11R)-6,11-Dimethyl-{2-[ethyl(phenyl)amino]ethyl}-1,2,3,4,5,6-hexahydro-2,6-methano-3-benzazocin-8-ol] |  | 55 ± 3% | 160 ± 7 nM | 28.7 ± 1 nM | 411 ± 14 nM | cAMP inhibition (KOR [4]): 30%
12 | C[C@H]1[C@H]2Cc3ccc(O)cc3[C@]1(C)CCN2CCCNc1ccccc1 [6a, (2R,6R,11R)-3-(3-Anilinopropyl)-6,11-dimethyl-1,2,3,4,5,6-hexahydro-2,6-methano-3-benzazocin-8-ol] |  | 50 ± 3% | 7 ± 0.6 nM | 71 ± 2 nM | 117 ± 5.2 nM | IC50 (KOR [4]): 1400 ± 69 nM; Imax (%) ± SD KOR (KOR [4]): 53 ± 4%
13 | C[C@H]1[C@H]2Cc3ccc(O)cc3[C@]1(C)CCN2CCCNC1CCCCC1 [6b, (2R,6R,11R)-3-[3-(Cyclohexylamino)propyl)-6,11-dimethyl-1,2,3,4,5,6-hexahydro-2,6-methano-3-benzazocin-8-ol] |  |  | 48 ± 1.4 nM | 126 ± 4.5 nM | > 5000 nM | IC50 (KOR [4]): > 5000 nM; Imax (%) ± SD KOR (KOR [4]): 44 ± 3%
14 | C[C@H]1[C@H]2Cc3ccc(O)cc3[C@]1(C)CCN2CCCN(C)c1ccccc1 [6c, (2R,6R,11R)-6,11-Dimethyl-{3-[methyl(phenyl)amino]propyl}-1,2,3,4,5,6-hexahydro-2,6-methano-3-benzazocin-8-ol] |  | 50 ± 3% | 68 ± 1.6 nM | 94 ± 3.5 nM | > 5000 nM | cAMP inhibition (KOR [4]): 30%
15 | CCN(CCCN1CC[C@@]2(C)c3cc(O)ccc3C[C@@H]1[C@@H]2C)c1ccccc1 [6d, (2R,6R,11R)-6,11-Dimethyl-{3-[ethyl(phenyl)amino]propyl}-1,2,3,4,5,6-hexahydro-2,6-methano-3-benzazocin-8-ol] |  | 40 ± 2% | 86 ± 3 nM | 56 ± 1.7 nM | 1060 ± 152 nM | cAMP inhibition (KOR [4]): 30%
16 | C[C@@H](NC(=O)[C@@H](N)Cc1ccc(O)cc1)C(=O)NCC(=O)N(C)[C@@H](Cc1ccccc1)C(=O)NCCO [DAMGO, reference compound] |  | 73 ± 0.3% |  |  |  | 
17 | C[C@H]1[C@H]2Cc3ccc(O)cc3[C@]1(C)CCN2CCC(=O)Nc1ccccc1 [LP1, reference compound] |  | 73 ± 3.8% |  |  |  | Ki (MOR [2]; [3H]DAMGO displacement, rat brain membranes, read-out: Ki (nM) ± SEM MOR): 0.83 ± 0.05 nM; ED50 (analgesia) [7]: 2.03 mg/kg; Ki (KOR [3]; [3H]U69,593 displacement, guinea pig brain membranes, read-out: Ki (nM) ± SEM KOR): 110 ± 6 nM; IC50 (DOR [8]): 12 nM; Ki (DOR [5]; [3H]DPDPE displacement, rat brain membranes, read-out: Ki (nM) ± SEM DOR): 29.1 ± 1 nM
18 | Oc1ccc2c3c1O[C@H]1c4[nH]c5ccccc5c4C[C@@]4(O)[C@@H](C2)N(CC2CC2)CC[C@]314 [Naltrindole, reference compound] |  |  |  |  | 1.13 ± 0.1 nM | 
